The target in one test is T1, βTRP (Homo sapiens, UniProt Q9NZQ8).
T1 construct: expressed in transfected cells; control line A1-5
T1 sequence (Q9NZQ8 1-1165): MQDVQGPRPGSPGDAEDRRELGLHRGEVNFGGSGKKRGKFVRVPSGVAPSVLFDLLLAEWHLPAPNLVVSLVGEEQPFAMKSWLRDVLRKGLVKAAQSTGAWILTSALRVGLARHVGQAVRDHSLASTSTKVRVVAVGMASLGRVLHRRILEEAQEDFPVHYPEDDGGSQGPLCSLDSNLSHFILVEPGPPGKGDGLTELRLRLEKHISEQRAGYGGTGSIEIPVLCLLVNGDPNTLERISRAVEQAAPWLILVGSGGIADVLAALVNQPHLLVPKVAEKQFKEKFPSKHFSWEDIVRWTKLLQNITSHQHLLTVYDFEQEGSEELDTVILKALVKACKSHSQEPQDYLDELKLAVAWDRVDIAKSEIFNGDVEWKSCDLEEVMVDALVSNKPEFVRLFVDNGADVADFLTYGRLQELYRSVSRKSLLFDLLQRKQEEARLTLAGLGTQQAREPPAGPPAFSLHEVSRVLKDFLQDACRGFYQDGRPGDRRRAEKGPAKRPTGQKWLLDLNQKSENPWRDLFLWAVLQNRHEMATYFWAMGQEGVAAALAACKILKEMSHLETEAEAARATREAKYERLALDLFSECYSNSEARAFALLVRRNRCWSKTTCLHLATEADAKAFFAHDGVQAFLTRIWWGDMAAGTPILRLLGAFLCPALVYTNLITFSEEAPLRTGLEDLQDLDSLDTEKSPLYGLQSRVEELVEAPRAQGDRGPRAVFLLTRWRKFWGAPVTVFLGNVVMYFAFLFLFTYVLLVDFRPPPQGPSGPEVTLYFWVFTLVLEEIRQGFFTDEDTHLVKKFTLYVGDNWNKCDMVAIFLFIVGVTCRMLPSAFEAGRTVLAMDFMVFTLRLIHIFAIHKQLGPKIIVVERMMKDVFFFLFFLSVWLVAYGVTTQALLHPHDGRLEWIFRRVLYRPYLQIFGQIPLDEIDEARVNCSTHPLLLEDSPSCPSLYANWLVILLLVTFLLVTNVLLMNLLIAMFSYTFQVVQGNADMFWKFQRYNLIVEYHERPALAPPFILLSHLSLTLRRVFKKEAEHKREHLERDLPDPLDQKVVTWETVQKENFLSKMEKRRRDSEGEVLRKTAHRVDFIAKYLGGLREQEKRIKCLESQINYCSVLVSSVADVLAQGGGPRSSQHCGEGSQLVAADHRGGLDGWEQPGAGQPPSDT
Briefly: Membrane potential (MP) assay in βTRP-CHO cells, FLEXStation with Membrane Potential Dye. Format: cell-based. Conditions: for depolarization / MP response in βTRP-CHO cells: βTRP-CHO cell line (A2-18); for EC50: βTRP-CHO cells, membrane potential, read-out: estimated EC50 of depolarization. Here is the method: (§1) Control and βTRP-CHO cells were plated in 96-well plates 2-d before the assay. [Ca^2+]i and membrane potential (MP) responses to ATP (30 μM added at 20 sec) were measured with FLEXStation® and correspondent dyes from Molecular Devices (Sunnyvale, Calif.).
(§2) The following protocol is optimized for the measurement of membrane potential (MP) in 96-well format using Molecular Devices' Membrane Potential Dye (Cat #R-8034) on the FLEXStation (Molecular Devices). It is expected to be applicable or adaptable to the 384-well format assay with the FLIPR^384 system.
A CHO-K1 based stable cell line expressing βTRP (designated “Line A2-18” herein) is used for βTRP high throughput screening according to the follow protocol: • 1. Seed A2–18 βTrp-CHO cell and the control line (A1-5) to 96-well plates. • 2. Grow the cells for 24–48 h in DMEM medium to 85–95% confluency. • 3. Prepare following reagents immediately before the assay: • i. Assay buffer: dilute Component B of the FLIPR® assay kit and adjust pH to 7.4 with 1 N NaOH. No probenecid was needed. • ii. MP dye: suspend a vial of Component A of the FLIPR® assay kit with 10 ml of the assay buffer. • iii. Compound solutions: dilute DMSO stocks of the testing compounds to a 5× solution with the assay buffer. Raise Ca^2+ concentration in the compound solutions to 12.5 mM with 1 M CaCl2. • 4. Carefully remove the culture medium from all wells. • 5. Add 50 μl assay buffer and 50 μl MP dye. • 6. Incubate the plates at 37° C. for 30–60 minutes. • 7. Set the FLEXStation to MP assay mode and to 37° C. • 8. Transfer the cell plate and compound plate to FLEXStation. • 9. Record baseline for 18 sec (Ex 530, Em560). • 10. Add the 5× compound solutions to the cells and read another 100 sec. • 11. Save and analyze data. Reagent List • 1. Assay buffer: Hank's Balanced Salt Solution (HBSS) with 20 mM Hepes, pH 7.4 • 2. MP dye: Molecular Devices Corporation, Cat#8034 (for FLIPR) • 3. Positive control: ATP 10–100 μM (a purinergic receptor agonist) Calcimycin (A23187) 5–10 μM (a calcium ionophore) • 4. Antagonist control: • i. 2-APB 75 μM (from Tocris, TRP channel and IP3 receptor blocker); • ii. U73122 10 μM (from Sigma Chemicals, PLC inhibitor). Other Experimental Conditions • 1. The Cells: • iii. Maintenance: DMEM with 10% FCS and 200 μg/ml G418; Passaged 1–2 time/week with trypsin-EDTA. • iv. Confluency: 85–95% by the time of assay. • v. Plating: Regular or pre-coated plates; 24–48 h before assay. • vi. Passage: up to the 10th passage.

The next test has as its system control (A1-5) CHO cells. The experiment in a line: Membrane potential (MP) assay in control CHO cells (A1-5). The settings on record: control CHO line (A1-5). Format: cell-based, Chinese hamster. Here is the method: as §1, §2
A CHO-K1 based stable cell line expressing βTRP (designated “Line A2-18” herein) is used for βTRP high throughput screening according to the follow protocol: • 1. Seed A2–18 βTrp-CHO cell and the control line (A1-5) to 96-well plates. • 2. Grow the cells for 24–48 h in DMEM medium to 85–95% confluency. • 3. Prepare following reagents immediately before the assay: • i. Assay buffer: dilute Component B of the FLIPR® assay kit and adjust pH to 7.4 with 1 N NaOH. No probenecid was needed. • ii. MP dye: suspend a vial of Component A of the FLIPR® assay kit with 10 ml of the assay buffer. • iii. Compound solutions: dilute DMSO stocks of the testing compounds to a 5× solution with the assay buffer. Raise Ca^2+ concentration in the compound solutions to 12.5 mM with 1 M CaCl2. • 4. Carefully remove the culture medium from all wells. • 5. Add 50 μl assay buffer and 50 μl MP dye. • 6. Incubate the plates at 37° C. for 30–60 minutes. • 7. Set the FLEXStation to MP assay mode and to 37° C. • 8. Transfer the cell plate and compound plate to FLEXStation. • 9. Record baseline for 18 sec (Ex 530, Em560). • 10. Add the 5× compound solutions to the cells and read another 100 sec. • 11. Save and analyze data. Reagent List • 1. Assay buffer: Hank's Balanced Salt Solution (HBSS) with 20 mM Hepes, pH 7.4 • 2. MP dye: Molecular Devices Corporation, Cat#8034 (for FLIPR) • 3. Positive control: ATP 10–100 μM (a purinergic receptor agonist) Calcimycin (A23187) 5–10 μM (a calcium ionophore) • 4. Antagonist control: • i. […]

Entries after “also recorded” stand apart in the source; their conditions may differ.

As to `NCCOB(c1ccccc1)c1ccccc1` [2-APB], on βTRP (inhibitor added at the same time as ATP), the “suppression of MP response to ATP” value was “over 50%”. Besides, the “suppression of MP response to calcimycin” value on βTRP (inhibitor added at the same time as calcimycin) is “over 50%”.
`Nc1ncnc2c1ncn2[C@@H]1O[C@H](COP(=O)(O)OP(=O)(O)OP(=O)(O)O)[C@@H](O)[C@H]1O` [ATP]: on βTRP, the “depolarization / MP response in βTRP-CHO cells” value is recorded as “present only in βTRP cells; also recorded: dose-dependently induced depolarization” and the EC50 is roughly 11 µM. Further, the “depolarization / MP response in control cells” value in the test on control (A1-5) CHO cells was “No effect”.
`CCCCCCC[N+](CC)(CC)CCCCc1ccc(Cl)cc1` [Clofilium]: the “depolarization / MP response in βTRP-CHO cells” value on βTRP was “triggered depolarization”. Moreover, in the test on control (A1-5) CHO cells, the “depolarization / MP response in control cells” value is “triggered depolarization”.
Take `C=CC[C@H](C)[C@H](C)C[C@@H](O)[C@H](O)[C@@H]1CC[C@@]2(C)O[C@@]3(C)C[C@@]4(C)O[C@H]5/C=C\C[C@H]6O[C@H]7C[C@H]8O[C@H]9C[C@@]%10(C)O[C@@](C)([C@@H]%11CC[C@H]%12O[C@@]%13(C)C[C@H]%14O[C@@]%15(C)C[C@H]%16O[C@@]%17(C)C[C@@H](O)[C@H]([C@@H]%18O[C@H]%19[C@H](O)[C@@H](O)[C@H](C[C@H](O)C[C@@H](O)[C@@H]%20O[C@H]%21[C@H](O)[C@@H](O)[C@H]([C@@H]%22O[C@@H]%23[C@H](O)[C@H]%24O[C@H]%25C[C@H]%26O[C@@H](C[C@H](O)[C@@H](O)[C@H]%27O[C@H]%28[C@H](O)[C@H]%29O[C@H]%30C[C@H]%31O[C@H]%32[C@@H](O)[C@@H](O)[C@H]([C@H](C)[C@H](O)[C@H](C)CC[C@H](OS(=O)(=O)O)[C@H](O)[C@H](C)C[C@@H](O)C(=C)/C(C)=C/CO)O[C@@H]%32[C@H](O)C[C@]%31(C)O[C@@H]%30C[C@]%29(C)O[C@@H]%28C[C@H]%27O)[C@H](OS(=O)(=O)O)[C@H](O)[C@@H]%26O[C@@H]%25C[C@@H]%24O[C@H]%23[C@H](O)[C@H]%22O)O[C@H]%21C[C@H]%20O)O[C@H]%19C[C@H]%18O)O[C@@H]%17[C@H](O)[C@]%16(C)O[C@@H]%15CC[C@]%14(C)O[C@@H]%13C[C@@H]%12O%11)[C@H](O)C[C@@H]%10O[C@]9(C)CC[C@]8(C)O[C@]7(C)C[C@@H]6O[C@@H]5C[C@@H]4O[C@@H]3C[C@@H]2O1` [MTX, maitotoxin]: on βTRP (1.26 mM Ca2+ in assay buffer), the “MP response at low Ca2+” value is on record as “lack of action”. Moreover, the “[Ca2+]i or MP increase at raised Ca2+” value on βTRP (Ca2+ raised to 2.5–5 mM) is “significantly enhanced”.
Take `COc1ccc2c(c1)CC[C@@H]1[C@@H]2CC[C@]2(C)[C@@H](NCCCCCCN3C(=O)C=CC3=O)CC[C@@H]12` [U73122]: the “effect on ATP-induced MP response after pre-incubation” value on βTRP (30 minute pre-incubation before ATP) was “inhibited”.
Take `CNc1ccc2oc(C[C@H]3O[C@@]4(CC[C@H]3C)O[C@H]([C@H](C)C(=O)c3ccc[nH]3)[C@H](C)C[C@H]4C)nc2c1C(=O)O` [calcimycin, Calcimycin]: on βTRP, the “depolarization / MP response in βTRP-CHO cells” value is listed as “dose-dependently induced depolarization” and the EC50 was roughly 0.8 µM. In addition, the “depolarization / MP response in βTRP-CHO cells” value at βTRP (listed as A23187) is “induced a βTRP cell specific depolarization”. Besides, in the test with control (A1-5) CHO cells, the “depolarization / MP response in control cells” value is recorded as “No effect”.

The values are drawn from patent publication US7087394B2, “Methods and compositions for treating and diagnosing diabetes and related diseases involving beta-TRP” (Metabolex, Inc., priority 2003, dated 2006).
